Like-named read-outs stand apart in the source and are kept apart here.
Key:
[1] = test system: Vesicular Stomatitis Virus (VSV) pseudotyped with EBOV glycoprotein; assay: microbe, parasite or virus in culture; type: cell-based, Ebola virus; details: HeLa, read-out: IC50, inhibition of EBOV-VSV pseudovirus entry
[2] = test system: Marburg virus (MARV), Musoke strain; assay: organism not typed; type: cell-based; details: HeLa; n=6; read-out: IC50 ± SEM versus MARV Musoke strain
[3] = test system: Ebola virus/H.sapiens-tc/COD/1995/Kikwit-9510621 (EBOV/Kik); assay: microbe, parasite or virus in culture; type: cell-based; details: Zaire ebolavirus, HeLa
[4] = test system: Ebola virus/H.sapiens-tc/GIN/2014/Makona-005 (EBOV/Mak); assay: microbe, parasite or virus in culture; type: cell-based; details: Zaire ebolavirus, HeLa
[5] = test system: Ebola virus/H.sapiens-tc/COD/1976/Yambuku-Mayinga (EBOV/May); assay: microbe, parasite or virus in culture; type: cell-based; details: Zaire ebolavirus, HeLa
[6] = test system: Marburg virus/H.sapiens-tc/AGO/2005/Ang-1379v (MARV/Ang); assay: organism not typed; type: cell-based; details: HeLa
[7] = test system: Marburg virus/H.sapiens-tc/KEN/1980/Mt. Elgon-Musoke (MARV/Mus); assay: organism not typed; type: cell-based; details: HeLa
Chikungunya virus = assay: microbe, parasite or virus in culture; type: cell-based; details: Vero 76
Ebola virus = assay: microbe, parasite or virus in culture; type: cell-based; details: Zaire ebolavirus, Vero 76
[8] = test system: Venezuelian equine encephalitis virus; assay: microbe, parasite or virus in culture; type: cell-based; details: Venezuelan equine encephalitis virus, Vero 76
EBOV Zaire = assay: microbe, parasite or virus in culture; type: cell-based, Ebola virus; details: Zaire ebolavirus, HeLa
SARS-CoV-2 = assay: microbe, parasite or virus in culture; type: cell-based
[9] = test system: murine hepatitis virus (MHV); assay: microbe, parasite or virus in culture; type: cell-based; details: Murine coronavirus, read-out: IC50 versus murine hepatitis virus (MHV)
SARS-CoV-2 Spike RBD = SARS-CoV-2 Spike RBD (Severe acute respiratory syndrome coronavirus 2, UniProt P0DTC2); type: binding
HeLa cells = details: human
[10] = mouse, microsomes
[11] = guinea pig, microsomes
[12] = microsomes
[13] = human, microsomes
[14] = mouse, microsomes, 1 h, pH 7.4
[15] = guinea pig, pH 7.4
[16] = human, microsomes, 1 h, pH 7.4
in vitro [17] = details: African green monkey
in vitro [18] = details: human

CCN(CC)CCCC(C)Nc1c2ccc(Cl)cc2nc2ccc(OC)cc12 (stereo not drawn) [Quinacrine]
IC50 [1]: 970 nM
IC50 [2]: 775 ± 283 nM
IC50 [3]: 1410 ± 250 nM
IC50 [4]: 1050 ± 260 nM
IC50 [5]: 1480 ± 650 nM
IC50 [6]: 2940 ± 760 nM
IC50 [7]: 1570 ± 170 nM
EC50 (Chikungunya virus): 3200 nM
EC50 (Ebola virus): > 12300 nM
EC50 [8]: 4000 nM
EC50 (EBOV Zaire): 350 nM
IC50 (SARS-CoV-2; Severe acute respiratory syndrome coronavirus 2, A549-ACE2, read-out: IC50 against SARS-CoV-2): < 200 nM
IC50 (SARS-CoV-2; read-out: IC50 against SARS-CoV-2): ~122 nM
IC50 [9]: 2300 nM
binding to SARS-CoV-2 Spike RBD (SARS-CoV-2 Spike RBD): did not demonstrate reproducible binding
CC50 (HeLa cells): 8620 ± 20 nM
Clint [10]: 110.0
Dextromethorphan: compound, t1/2 normalized to dextromethorphan control [10]: 0.8
t1/2 [10]: 12.6 min
Clint [11]: 81.3
Dextromethorphan: compound, t1/2 normalized to dextromethorphan control [11]: 5.4
t1/2 [11]: 17.1 min
Clint [12]: 137.4
Dextromethorphan: compound, t1/2 normalized to dextromethorphan control [12]: 1
t1/2 ([12]; monkey): 10.1 min
Clint [13]: 50.5
Dextromethorphan: compound, t1/2 normalized to dextromethorphan control [13]: 1.4
t1/2 [13]: 27.5 min
Relative Peak Area/Abundance MLM [14]: 32.0%
Relative Peak Area/Abundance GPLM [15]: 20.7%
Relative Peak Area/Abundance HLM [16]: 32.3%
CC50 (in vitro [17]): 15000 nM
CC50 (in vitro [18]): 6200 nM
